{"source": "patent US7998503B2", "about": "“Form of administration for controlling primary headaches” (LTS Lohmann Therapie-Systeme AG, priority 2003, dated 2011)", "origin": "cited, not measured here", "settings": "nasally administered, literature report", "data": [{"smiles": "CCN(CC)CC(=O)Nc1c(C)cccc1C", "note": "[lidocaine]", "values": [{"measurement": "effect on migraine pain after nasal administration", "setting": "e.g. sprays", "value": "fast decline in migraine pain"}, {"measurement": "renewed appearance of the pain after administration", "setting": "shortly after administration", "value": "recurrence, meaning renewed appearance of the pain, was found shortly after administration"}]}]}
